Data taken from patent publication US6825230B2, “Spiro and dispiro 1,2,4-trixolane antimalarials” (Medicines for Malaria Venture MMV, priority 2002, dated 2004).
In brackets after ≈: the same amount, converted by molar mass. Like-named read-outs stand apart in the source and are kept apart here.

Tests used:
P. berghei ANKA strain [1] = experiment: Divided 3x10 mg/kg vs single 1x30 mg/kg po dose in infected mice; assay type: in vivo, Plasmodium berghei; settings: for Survival (days) 3 × 10 mg/kg p.o. SSV / Activity (%) 3 × 10 mg/kg p.o. SSV: 10 mg/kg po on days 1, 2, 3 post-infection
Description: (§1) Moro NMRI male mice (Fu Albino specific pathogen free) weighing 18±2 g were infected intravenously (i.v.) with 2×10^7 P. berghei ANKA strain-infected erythrocytes from donor mice on day 0 of the experiment. From donor mice with circa 30% parasitemia, heparinized blood was taken and diluted in physiological saline to 10^8 parasitized erythrocytes per ml. An aliquot (0.2 ml) of this suspension was injected i.v. into experimental and control groups of mice. […] Throughout the experiments, mice were kept in groups of three or five animals in Makrolon type II cages in an air-conditioned animal room at 22 to 23° C.
(§2) They were administered per os (p.o.) in a total volume of 0.01 ml per gram of mouse. The activity of the compound was determined by a variety of methods outlined in subsequent sections. Survival time was also recorded, and survival to day 30 post-infection was considered to be a cure.
The first experiment conducted consisted of administration of a divided 3×10 mg/kg p.o. dose administered on days 1, 2, and 3 post-infection vs. a single 1×30 mg/kg po dose administered on day 1 post-infection. On day 4 post-infection, blood smears of all animals were prepared and stained with Giemsa. […] Compounds were administered orally in the SSV vehicle.

[2] = tested on: ANKA strain of P. berghei; experiment: Single dose STI in vivo screen in infected mice; design: species or system Plasmodium berghei; settings: for Survival (days) 3 mg/kg SSV po / Activity (%) 3 mg/kg SSV po: single 3 mg/kg po in SSV; for Survival (days) 10 mg/kg SSV po: single 10 mg/kg po in SSV; for Activity (%) 10 mg/kg SSV po: single 10 mg/kg po in standard suspending vehicle (SSV) on day 1 post-infection
P. berghei ANKA strain [3] = experiment: Divided 3x3 mg/kg and 3x1 mg/kg po doses in infected mice; assay type: in vivo, Plasmodium berghei; settings: for Cures: 3 mg/kg, 720 h
Description: as §1, §2
The second experiment consists of administration of divided 3×3 mg/kg and 3×1 mg/kg po doses administered on days 1, 2, and 3 post-infection. On day 4 post-infection, blood smears of all animals were prepared and stained with Giemsa. […] Compounds were administered orally in the SSV vehicle.

P. berghei ANKA strain [4] = experiment: Prophylactic activity, single 100 mg/kg po at various times before infection; assay type: in vivo, Plasmodium berghei; settings: for Prophylactic Activity (%) 72 h: po, 100 mg/kg; for Prophylactic Activity (%) 24 h: single 100 mg/kg po 24 h before infection; for Prophylactic Activity (%) 24 h / Prophylactic Activity (%) 48 h / Prophylactic Activity (%) 0 h: parasitemia reduction on day 3 post-infection; for Prophylactic Activity (%) 48 h: single 100 mg/kg po 48 h before infection; for Prophylactic Activity (%) 0 h: single 100 mg/kg po at 0 h
Description: as §1
Prophylactic activities of the compounds were compared after administering po single dose of 100 mg/kg to different groups of five animals at various times before infection. All groups including an untreated control group, were then infected at the same time. Parasitemia was determined for each animal on day 3 post-infection, and percent of reduction of the level of parasitemia compared to levels for animals given no drug is determined.

[5] = tested on: Schistosoma mansoni adult worms (49-day-old); experiment: Effect on adult schistosomes (49-day-old) in infected mice; assay type: in vivo; settings: for % reduction of adult worms growth at day 49 after per os application of 400 mg/kg, TWR (%) / Adult worms day 49, per os 400 mg/kg, DEAD WORM (%): single 400 mg/kg per os
Description: Mice were infected with 100 Schistosoma mansoni cercariae on day 49 post-treatment. Each group was treated per os with OZ compounds at single doses of 200, 400, and 600 mg/kg. Untreated mice served as the control. All groups were killed 4 weeks after treatment and the liver and intestine were removed and separated. The liver and intestine were compressed and alive male and female worms could be seen and counted.

[6] = tested on: chloroquine-sensitive NF54 strain of P. falciparum; experiment: In vitro antimalarial semiautomated microdilution assay ([3H]-hypoxanthine incorporation), NF54 strain; assay type: cell-based, Plasmodium falciparum; settings: Plasmodium falciparum
In short: (§3)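 Logit regression analysis yields the fifty percent inhibitory concentration. Compounds are tested by semiautomated microdilution on intraerythrocytic parasites drawn from asynchronous stock cultures, measuring [3H]-hypoxanthine incorporation.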

[7] = tested on: chloroquine-resistant K1 strain of P. falciparum; experiment: In vitro antimalarial semiautomated microdilution assay ([3H]-hypoxanthine incorporation), K1 strain; assay type: cell-based, Plasmodium falciparum; settings: Plasmodium falciparum
In short: as §3

[8] = tested on: ANKA strain of Plasmodium berghei; experiment: Single dose ED50/ED90/ED99 determination in infected mice; assay type: in vivo
Description: In the single dose ED50/ED98/ED99 determinations, Moro SPF or NMRI mice (group of three) infected with the ANKA strain of Plasmodium berghei were treated on day one post-infection. […] The SSV consists of 0.5% w/v CMC, 0.5% v/v benzyl alcohol, 0.4% v/v Tween 80, and 0.9% w/v sodium chloride in water. Antimalarial activity was measured by percent reduction in parasitemia on day three post-infection. The ED50/ED90 values were calculated by nonlinear fitting.
The ED50, ED90, and ED99 values were calculated by non-linear fitting with statistical program and were expressed in mg/kg.

[9] = tested on: Schistosoma mansoni 21-day-old schistosomules; experiment: Effect on 21-day-old schistosomules in infected mice; assay type: in vivo; settings: for % reduction of schistosomule growth at day 21 after per os application of 200 mg/kg, FWR (%): female worm reduction rate
Description: Mice were infected with 100 Schistosoma mansoni cercariae on day 21 post-treatment. Each group was treated per os with trioxolanes at a single dose of 200 mg/kg. […] All groups were killed 4 weeks after treatment and the liver and intestine were removed and separated. The liver and intestine were compressed and alive male and female worms could be seen and counted. The effect of the compounds was evaluated by mean total and female worm burden.

[10] = percent reduction in parasitemia on day 3
[11] = 3 × 1 mg/kg p.o. SSV on days 1, 2, 3 post-infection
[12] = 3 × 3 mg/kg p.o. SSV on days 1, 2, 3 post-infection
[13] = 3 × 3 mg/kg p.o. SSV on days 1, 2, 3 post-infection, percent reduction of parasitemia vs control on day 4
[14] = 49-day-old adults, total worm reduction rate
[15] = percentage of dead worm in the liver
[16] = chloroquine-sensitive NF54 strain, 72 h incubation, read-out: IC50 (ng/ml) NF54
[17] = chloroquine-resistant K1 strain, 72 h incubation, read-out: IC50 (ng/ml) K1
[18] = single dose po in SSV on day 1 post-infection, parasitemia day 3, nonlinear fitting
[19] = single 200 mg/kg per os, 21-day-old schistosomules

| Structure (SMILES) | Survival (days) 3 × 10 mg/kg p.o. SSV (P. berghei ANKA strain [1]) | Activity (%) 3 × 10 mg/kg p.o. SSV (P. berghei ANKA strain [1]; parasitemia reduction on day 4) | Survival (days) 3 mg/kg SSV po [2] | Activity (%) 3 mg/kg SSV po [2, 10] | Survival (days) 10 mg/kg SSV po ([2]; untreated 6-7 days) | Activity (%) 10 mg/kg SSV po [2, 10] | Survival (P. berghei ANKA strain [3]; [11]) | Survival (P. berghei ANKA strain [3]; [12]) | Activity (%) (P. berghei ANKA strain [3]; [13]) | Activity (%) (P. berghei ANKA strain [3]; po, 1 mg/kg, 96 h) | Cures (P. berghei ANKA strain [3]; po) | Prophylactic Activity (%) 72 h (P. berghei ANKA strain [4]) | Prophylactic Activity (%) 24 h (P. berghei ANKA strain [4]) | Prophylactic Activity (%) 48 h (P. berghei ANKA strain [4]) | Prophylactic Activity (%) 0 h (P. berghei ANKA strain [4]) | % reduction of adult worms growth at day 49 after per os application of 400 mg/kg, TWR (%) [5, 14] | Adult worms day 49, per os 400 mg/kg, DEAD WORM (%) [5, 15] | IC50 [6, 16] | IC50 [7, 17] | ED99 [8, 18] | also measured |
| --- | --- | --- | --- | --- | --- | --- | --- | --- | --- | --- | --- | --- | --- | --- | --- | --- | --- | --- | --- | --- | --- |
| Cc1ccc(S(=O)(=O)O)cc1.N[C@H]1CC[C@H](NC(=O)C[C@H]2CC[C@]3(CC2)OO[C@]2(O3)C3CC4CC(C3)CC2C4)CC1 [OZ315] | >30 days | 100% | 9.6 days | 92% | 11.2 days | 99.97% | 12.2 days | 22 days | 99.99% | 81% | 0\5 | – | – | – | – | – | – | – | – | – | – |
| CC(C)(N)C(=O)NC[C@H]1CC[C@]2(CC1)OOC1(O2)C2CC3CC(C2)CC1C3 (some centres unmarked) [OZ281] | – | – | – | 96% | 8.7 days | 99.87% | 13 days | 12.4 days | 100% | 92% | 0\5 | 8% | 99.23% | 45% | 100% | 12% | 15% | 0.3 ng/mL (≈ 0.793 nM) | 0.5 ng/mL (≈ 1.32 nM) | – | – |
| NCC(=O)NC[C@H]1CC[C@]2(CC1)OO[C@]1(O2)C2CC3CC(C2)CC1C3 [OZ271] | 27.8 days | 100% | 8.6 days | 99.52% | 8.7 days | 99.93% | 8.8 days | 16.2 days | 99.99% | 87% | 0\5 | 99.89% | 100% | 99.98% | 100% | 0% | 6% | 0.29 ng/mL (≈ 0.827 nM) | 0.36 ng/mL (≈ 1.03 nM) | – | Duration of prophylactic protection (P. berghei ANKA strain [4]; single 100 mg/kg po): 3 days; Survival (days) 1 × 30 mg/kg p.o. SSV (P. berghei ANKA strain [1]; single 30 mg/kg po on day 1 post-infection): 14 days; Activity (%) 1 × 30 mg/kg p.o. SSV (P. berghei ANKA strain [1]; single 30 mg/kg po on day 1 post-infection, parasitemia reduction on day 4): 99.97%; Cures 1 × 30 mg/kg p.o. SSV (P. berghei ANKA strain [1]; single 30 mg/kg po, cure = survival to day 30 post-infection): 0/5 |
| c1cc(OC[C@H]2CC[C@]3(CC2)OO[C@]2(O3)C3CC4CC(C3)CC2C4)ccn1 [OZ301] | >30 days | 100% | 8.4 days | 97% | 11.8 days | 100% | 8.8 days | 23 days | 100% | – | – | – | – | – | – | – | – | – | – | – | Cured infected mice at the 3×3 mg/kg dose (P. berghei ANKA strain [3]; 3 mg/kg po (SSV) on days 1, 2, 3 post-infection): 1/5; Activity (%) (P. berghei ANKA strain [3]; 3 × 1 mg/kg p.o. SSV on days 1, 2, 3 post-infection, percent reduction of parasitemia vs control on day 4): 58% |
| O=C1CCC2(CC1)OOC1(O2)C2CC3CC(C2)CC1C3 (centres unmarked) [OZ05] | – | – | – | – | – | – | – | – | – | – | – | – | – | – | – | 23% | 32% | – | – | 15 mg/kg | % reduction of adult worms growth at day 49 after per os application of 200 mg/kg, TWR (%) ([5]; single 200 mg/kg per os, 49-day-old adults, total worm reduction rate): 46%; Adult worms day 49, per os 200 mg/kg, DEAD WORM (%) ([5]; single 200 mg/kg per os, percentage of dead worm in the liver): 12%; % reduction of adult worms growth at day 49 after per os application of 600 mg/kg, TWR (%) ([5]; single 600 mg/kg per os, 49-day-old adults, total worm reduction rate): 70%; Adult worms day 49, per os 600 mg/kg, DEAD WORM (%) ([5]; single 600 mg/kg per os, percentage of dead worm in the liver): 58%; ED90 ([8]; po): 12 mg/kg; % reduction of schistosomule growth at day 21 after per os application of 200 mg/kg, TWR (%) ([9]; po, 200 mg/kg, 504 h): 90%; % reduction of schistosomule growth at day 21 after per os application of 200 mg/kg, FWR (%) [9, 19]: 88% |
| CC(C)(O)C[C@H]1CC[C@]2(CC1)OOC1(O2)C2CC3CC(C2)CC1C3 (some centres unmarked) [OZ205] | – | – | – | – | 8.7 days | 99.94% | – | – | – | – | – | – | – | – | – | 0% | 12% | – | – | 6.0 mg/kg | ED50 ([8]; Plasmodium berghei, po, single dose po in SSV on day 1 post-infection, parasitemia day 3, nonlinear fitting): 1.6 mg/kg; ED90 [8, 18]: 3.3 mg/kg; IC50 ([6]; NF54, 72 h, read-out: IC50 (ng/ml) NF54, chloroquine-sensitive NF54 strain, 72 h incubation): 2 ng/mL (≈ 5.94 nM); Survival (days) 10 mg/kg po ([2]; single 10 mg/kg po in 3% ethanol and 7% Tween 80, untreated 6-7 days): 10.0 days; Activity (%) 10 mg/kg po ([2]; single 10 mg/kg po in 3% ethanol and 7% Tween 80 on day 1 post-infection, percent reduction in parasitemia on day 3): 99.96%; Survival (days) 10 mg/kg sc ([2]; single 10 mg/kg sc in 3% ethanol and 7% Tween 80, untreated 6-7 days): 9.7 days; Activity (%) 10 mg/kg sc ([2]; single 10 mg/kg sc in 3% ethanol and 7% Tween 80 on day 1 post-infection, percent reduction in parasitemia on day 3): 99.96%; IC50 ([7]; K1, 72 h, read-out: IC50 (ng/ml) K1, chloroquine-resistant K1 strain, 72 h incubation): 1.5 ng/mL (≈ 4.46 nM); % reduction of schistosomule growth at day 21 after per os application of 200 mg/kg, FWR (%) [9, 19]: 83%; % reduction of schistosomule growth at day 21 after per os application of 200 mg/kg, TWR (%) ([9]; single 200 mg/kg per os, 21-day-old schistosomules, total worm reduction rate): 84% |
